The test system of series [1] is Plasmodium falciparum. In words: NOVARTIS: Inhibition of Plasmodium falciparum 3D7 (drug-susceptible) proliferation in erythrocyte-based infection assay. It is filed as functional, organism-based. The following applies: Plasmodium falciparum, 3D7.
For series [2], the system named is Plasmodium falciparum. In words: NOVARTIS: Inhibition of Plasmodium falciparum W2 (drug-resistant) proliferation in erythrocyte-based infection assay. It is filed as functional, organism-based. Particulars: Plasmodium falciparum, W2; read-out: EC50.
Series [3] is described as follows: NOVARTIS: Cytotoxicity against human hepatocellular carcinoma cell line (Huh7). It is filed as toxicity, cell-based, Huh-7. The following applies: Huh7 cells (hepatocellular carcinoma cell line).

Each structure is given as a SMILES string.

Regarding `COc1ccc2nc(C)cc(Nc3ccc(Cl)c(Cl)c3)c2c1`, the EC50 in the series on Plasmodium falciparum [1] was 249 nM; with Plasmodium falciparum [2], 426 nM. Further, the cytotoxic concentration (CC50) in series [3] is 6250 nM.
For `O=C(Nc1ccc(-c2cnc(-c3ccc(NC(=O)c4cccc([N+](=O)[O-])c4)cc3)nc2)cc1)c1cccc([N+](=O)[O-])c1` the same measures were > 480 nM, 681 nM and > 10000 nM.
For `COc1ccc(OC)c(-c2ccc(O)c(CNCC(C)c3ccccc3)c2)c1` (stereo unspecified), in that order: 960 nM, 672 nM and > 10000 nM.
For `Oc1ccc(-c2ccc(F)cc2)cc1CNCCN1CCOCC1`, in that order: 901 nM, 681 nM and > 10000 nM.
Consider `COc1ccc(C2SCCN2S(=O)(=O)c2cccc([N+](=O)[O-])c2)cc1OC` (stereo unspecified), for which the figures for the EC50 in the series with Plasmodium falciparum [1] and with Plasmodium falciparum [2] were > 1250 nM and > 676 nM, respectively. In series [3], the CC50 was > 10000 nM.
As for `CCCCNC(=O)CCCNC(=O)Cn1cnc2sc3c(c2c1=O)CCCC3`, the half-maximal effective concentration (EC50) is > 1250 nM in the series with Plasmodium falciparum [1] and > 683 nM in the series on Plasmodium falciparum [2]. The half-maximal cytotoxic concentration (CC50) in series [3] was > 10000 nM.
For `CC(C)CN(C(C(=O)NC(CN1CCCC1)c1ccccc1)c1ccccc1)S(=O)(=O)c1ccccn1` (stereo unspecified), in that order: 1320 nM, 682 nM and > 10000 nM.
As to `CC(C)NC(=O)c1ccc2c(c1)N=C(/C=C/c1ccccc1)N(CC1CCCCC1)C2`, the results for the EC50 with Plasmodium falciparum [1] and with Plasmodium falciparum [2] were > 1250 nM and 696 nM, respectively. Also, in series [3], the CC50 was > 10200 nM.
For `Cc1cc(Oc2ncnc(N(C)CC(=O)OC(C)(C)C)c2[N+](=O)[O-])c2nncn2n1` the same measures were > 1630 nM, > 684 nM and > 10000 nM.
For `CCOC(=O)N1CCN(S(=O)(=O)c2ccc(C(=O)Nc3sc4c(c3C(N)=O)CCN(CC)C4)cc2)CC1`, in that order: > 12500 nM, 1390 nM and 20400 nM.
For `CCN(CC)CCCC(C)Nc1nc(/C=C/c2ccccc2OC)nc2cc(Cl)ccc12` (stereo unspecified), in that order: 878 nM, 688 nM and > 10000 nM.
Turning to `Cc1ccc(-c2c3c(nc4sc(C(=O)Nc5ccc(Cl)cc5)c(N)c24)CCCC3)o1`, the EC50 is 8310 nM in the series with Plasmodium falciparum [1] and 6780 nM in the series on Plasmodium falciparum [2]. Further, in series [3], the half-maximal cytotoxic concentration (CC50) is > 100000 nM.
`COc1ccc(Nc2nc(Nc3ccc(OC)cc3)c3[nH]ccc3n2)cc1`: the values for the EC50 with Plasmodium falciparum [1] and with Plasmodium falciparum [2] were 667 nM and 678 nM, respectively. For the same molecule, in series [3], the cytotoxic concentration (CC50) is > 10000 nM.
Turning to `CC(=O)Nc1ccc(NC2=CC(=NS(=O)(=O)c3ccccc3)c3ccccc3C2=O)cc1`, the concentration giving a half-maximal response (EC50) in the series with Plasmodium falciparum [1] stood at 509 nM; in the series on Plasmodium falciparum [2], 466 nM. Also, in series [3], the CC50 turned out to be 6880 nM.
`Cc1nnc2sc(SCc3cccc([N+](=O)[O-])c3)nn2c1=O`: the EC50 is > 1070 nM in the series with Plasmodium falciparum [1] and 942 nM in the series on Plasmodium falciparum [2]. Moreover, in series [3], the CC50 was > 13900 nM.
Regarding `CCn1c(C)cc(/C=C2\C(=O)NC(=O)N(c3cccc(Cl)c3)C2=O)c1C`, the EC50 with Plasmodium falciparum [1] was > 674 nM; with Plasmodium falciparum [2] it was 679 nM. Moreover, in series [3], the 50% cytotoxic concentration (CC50) was > 10000 nM.
For `Clc1ccccc1Nc1nc2nonc2nc1Nc1cccc(Br)c1`, in that order: > 1250 nM, > 678 nM and > 10000 nM.
For the molecule `Cc1cc(NS(=O)(=O)c2ccc(NC(=O)c3ccc([N+](=O)[O-])cc3)cc2)no1`, the EC50 is > 1250 nM with Plasmodium falciparum [1] and > 678 nM in the series with Plasmodium falciparum [2]. In series [3], the cytotoxic concentration (CC50) was > 10000 nM.
With `COc1cccc(CCN2Cc3ccc(C(=O)NC(C)C)cc3N=C2c2ccc(C)cc2)c1`, the EC50 was determined as 938 nM in the series with Plasmodium falciparum [1] and 680 nM in the series with Plasmodium falciparum [2]. Moreover, the CC50 in series [3] is > 10000 nM.
For `NC(=O)C(Cc1ccccc1)Nc1ccc([N+](=O)[O-])cc1[N+](=O)[O-]` (stereo unspecified) the same measures were 883 nM, 680 nM and > 10000 nM.
For `COc1ccc(NC(=O)Cn2c(-c3ccc(OC)cc3)cn(-c3ccc(C)cc3)c2=O)cc1`, in that order: 889 nM, > 676 nM and > 10000 nM.
For `Cc1ccc(Sc2c(C)nn(C(=O)c3cccnc3)c2C)cc1`, in that order: 322 nM, > 677 nM and > 10000 nM.
With `CCN(CC(=O)N1CCc2cc(OC)c(OC)cc2C1C)C(=O)Nc1ccc(Br)cc1` (stereo unspecified), the EC50 was > 1250 nM in the series on Plasmodium falciparum [1] and > 692 nM in the series on Plasmodium falciparum [2]. The CC50 in series [3] was > 10000 nM.
For `O=C1N(c2ccccc2)C[C@@H]2C[C@@H](c3ccc4nsnc4c3)N3CCC[C@@]123`, the concentration giving a half-maximal response (EC50) in the series with Plasmodium falciparum [1] was 888 nM; with Plasmodium falciparum [2], 641 nM. Besides, the CC50 in series [3] was determined as 9250 nM.
Consider `Cc1ccc(NC(=O)c2cc(C(=O)c3cc(Cl)ccc3O)cn(-c3ccc(C)c(C)c3)c2=O)cc1C`, for which the values for the EC50 in the series on Plasmodium falciparum [1] and with Plasmodium falciparum [2] were 8070 nM and 6900 nM, respectively. Moreover, the cytotoxic concentration (CC50) in series [3] was > 100000 nM.
For the molecule `COC(=O)c1c(C)oc2ccc(N(C(=O)c3ccc(C)cc3)S(=O)(=O)c3ccccc3)cc12`, the EC50 is > 1680 nM in the series with Plasmodium falciparum [1] and 690 nM in the series on Plasmodium falciparum [2]. Further, in series [3], the CC50 was > 10000 nM.
For `CCCS(=O)(=O)N1CCC(CO)(Cc2ccccc2C(F)(F)F)CC1`, in that order: 1250 nM, 692 nM and > 10000 nM.
For `COc1cc(NC(C)CCCN(Cc2ccccc2OC)C(=O)COCc2ccccc2)c2ncccc2c1` (stereo unspecified) the same measures were 1120 nM, 689 nM and > 10000 nM.
For `COc1cc(C=CC(=O)Nc2ccc3nc(N4CCN(c5ncccn5)CC4)cc(C)c3c2)cc(OC)c1OC` the same measures were 841 nM, 505 nM and 7420 nM.
As to `CC(C)(C)CC(C)(C)Nc1c(-c2ccccc2OC(=O)c2ccc(Br)cc2)nc2ccccn12`, the values for the EC50 with Plasmodium falciparum [1] and in the series on Plasmodium falciparum [2] were 1310 nM and 96 nM, respectively. Also, the CC50 in series [3] was > 1430 nM.
For `CC(O)c1ccc(NC(=O)c2cnn3c2NC(c2ccco2)CC3C(F)(F)F)cc1` (stereo unspecified), in that order: > 1250 nM, > 675 nM and > 10000 nM.
For `CN1CCN(c2cc(-c3cccnc3)nc(-c3ccncc3)n2)CC1`, the results for the EC50 in the series on Plasmodium falciparum [1] and in the series on Plasmodium falciparum [2] were 588 nM and 656 nM, respectively. Further, the 50% cytotoxic concentration (CC50) in series [3] is > 9550 nM.
For `Cc1cccc(CN2CCC(CNC(=S)Nc3ccc4nc(N5CCN(C)CC5)cc(C)c4c3)CC2)c1` the same measures were > 9900 nM, 6760 nM and > 100000 nM.
In the case of `CCC1=NN2C(=N)/C(=C/c3ccc(OCCOc4ccc(Br)cc4)c(OC)c3)C(=O)N=C2S1`, the half-maximal effective concentration (EC50) in the series on Plasmodium falciparum [1] was > 1250 nM; in the series with Plasmodium falciparum [2], > 675 nM. Also, in series [3], the cytotoxic concentration (CC50) is > 10000 nM.
For `O=C1Nc2ccccc2C1=NN=Cc1ccc(-c2ccccc2[N+](=O)[O-])o1`, the results for the EC50 in the series on Plasmodium falciparum [1] and in the series with Plasmodium falciparum [2] were > 12500 nM and 6750 nM, respectively. Further, the CC50 in series [3] was > 100000 nM.
For `COc1cccc(CN2CCN(C3CCCC(C)C3)CC2)c1OC` (stereo unspecified) the same measures were > 12500 nM, > 6700 nM and > 100000 nM.
For `COc1ccc(C=NNc2cc(C)nc(-c3ccccc3)n2)cc1OC` the same measures were 8510 nM, 3300 nM and 48800 nM.
For `COc1ccc(C(=NO)C2CC2c2ccc(Cl)cc2)cc1` (stereo unspecified), in that order: 735 nM, 668 nM and > 10000 nM.
Regarding `CCCCCN(C(=O)c1cccc(C(F)(F)F)c1)C(CC)c1nc2ccccc2c(=O)n1-c1ccccc1OC` (stereo unspecified), the EC50 was determined as 728 nM with Plasmodium falciparum [1] and 673 nM with Plasmodium falciparum [2]. Moreover, the CC50 in series [3] is > 10000 nM.
For the molecule `CCC(=O)N1c2ccccc2NC2=C(C(=O)CC(C)(C)C2)C1c1ccc2c(c1)OCO2` (stereo unspecified), the results for the EC50 with Plasmodium falciparum [1] and with Plasmodium falciparum [2] were 3530 nM and 6720 nM, respectively. For the same molecule, the CC50 in series [3] was > 100000 nM.
For `Cc1c(Cl)cccc1N1C(=O)C2C3c4ccccc4C(c4ccccc43)C2C1=O` (stereo unspecified) the same measures were > 1610 nM, 686 nM and > 10000 nM.
For `COC(=O)C(C)NC(=O)c1ccc(F)cc1` (stereo unspecified) the same measures were > 1250 nM, 681 nM and > 10000 nM.
For `CC(=O)N(Cc1ccc(F)cc1)C1=C(NCc2ccccc2)C(=O)c2ccccc2C1=O`, in that order: 680 nM, 679 nM and > 10000 nM.
Regarding `CCC(C)(C)c1ccc(OCCOCC[n+]2ccccc2)c(C(C)(C)CC)c1`, the figures for the concentration for a half-maximal effect (EC50) with Plasmodium falciparum [1] and in the series with Plasmodium falciparum [2] were 960 nM and 844 nM, respectively. The molecule further had a CC50 in series [3] of 12200 nM.
For `Cc1sc2c(c1C)CN(Cc1ccco1)CN2C(=O)c1ccco1` the same measures were > 12500 nM, > 6910 nM and > 100000 nM.
For `COc1cc(NC(C)CCCN(Cc2ccc(OC)c(OC)c2)C(=O)c2ccccc2C)c2ncccc2c1` (stereo unspecified), the half-maximal effective concentration (EC50) turned out to be 867 nM in the series with Plasmodium falciparum [1] and 831 nM in the series on Plasmodium falciparum [2]. Further, the CC50 in series [3] was > 12200 nM.
For `Cc1ccc(NC(=O)C2C3C=CC4(O3)C2C(=O)N(Cc2cccnc2)C4C(=O)NC2CCCCC2)cc1` (stereo unspecified) the same measures were > 1640 nM, 682 nM and > 10000 nM.
In the case of `O=C(CCl)Nc1ccc(N2CCCCCC2)cc1`, the EC50 is 1260 nM with Plasmodium falciparum [1] and 1330 nM in the series with Plasmodium falciparum [2]. Moreover, in series [3], it took 19700 nM to reach half-maximal cytotoxicity (CC50).
For `CC(C)(C)NS(=O)(=O)c1cc(Cl)ccc1Cl`, in that order: > 1250 nM, 730 nM and > 10900 nM.
For `COc1ccc(N(C)C(=O)CNC(=O)c2nn(-c3ccc(OC)cc3OC)c(=O)c3ccccc23)cc1`, in that order: > 1250 nM, > 685 nM and > 10000 nM.
Take `Cc1ccc(CN2CCC(O)(c3ccc4oc(C(=O)NCCc5cccc(F)c5)cc4c3)CC2)cc1`: the EC50 is 4160 nM with Plasmodium falciparum [1] and 3010 nM in the series with Plasmodium falciparum [2]. The molecule also gave a CC50 in series [3] of 43500 nM.
For `CC(C)[C@@]1(NC(=O)[C@@H]2C[C@@H]3c4cccc5[nH]cc(c45)C[C@H]3N(C)C2)O[C@@]2(O)[C@@H]3CCCN3C(=O)[C@H](CC3CCCCC3)N2C1=O`, in that order: 1160 nM, 768 nM and > 11400 nM.

The values above are taken from ChEMBL document CHEMBL1156829 (Proc Natl Acad Sci U S A, 2008).
